Counter-ions that a name gives are not always drawn.
Legend:
[1] = test system: learning ability of mice in a shuttle chamber; assay: Learning ability of mice in a shuttle chamber; type: in vivo, mouse; conditions: mice
[2] = test system: cerebral cortex of rabbits; assay: Asymmetry factor by induced potential in the hearing zone of the cerebral cortex; type: in vivo, rabbit
Protocol: In the third series of experiments the effect of the preparation according to the present invention on the functional brain asymmetry was studied. The experiments were carried out on rabbits with electrodes implanted in the brain. The electrodes under nembutal narcosis (40 mg/kg) were implanted strictly symmetrically into the bearing zone of the temporal cortex of the right and left hemispheres on its lateral surface, whereas the indifferent electrode was secured to the nasal bones of a rabbit's skull. The acoustic irritation was applied through earphones. As the acoustic irritation a sound click caused by a square-shaped pulse from an electronic stimulator with a frequency of 0.1-0.2 Hz was used; the click intensity was adjusted within the range of from 5 to 80 Db. The amplification of the taken-off biopotentials was effected on an electroencephalograph; the induced potentials were obtained by means of an analyzer. 100 experiments on 20 animals were thus conducted; the interval between experiments on one animal was 7 days. The amplitude and form of the induced potential were determined. The asymmetry factor (Kas) was calculated by the formula: [formula] Ar --amplitude of the induced potential of the […] hemisphere, μV;
A1 --amplitude of the induced potential of the left hemisphere.
The test preparations were administered hypodermally in the form of 0.5-1.5% aqueous solutions 20 minutes before the beginning of the measurements.

[3] = test system: learning ability of rats in a shuttle chamber; assay: Active avoidance learning in a shuttle chamber, rats; type: in vivo, rat; conditions: rats, hypodermally 0.04 mg/kg
From the text: (§1) In these experiments rats are taught to avoid an electric shock by escaping into a next chamber communicating with the first chamber by means of a special opening--a door. An electric current is applied to the chamber door consisting of metal plates. A conditional irritator is a light signal together with a sound click. The learning series consisted of 50 combinations. The number of combinations necessary for the animal's learning to escape into another chamber in response to the conditional signal was determined. Five correct responses out of 6 where regarded as the proof of stability of the acquired knowledge and were denoted as a "learning criterion". After 7 days the educational procedure was repeated, and again the number of combinations necessary to acquire the "learning criterion" was determined. In the case of difference between the first and second readings the percentage of retention of the acquired knowledge was calculated.
(§2) In this experiment the effect of the preparation according to the present invention and prior art preparations was separately evaluated for the purpose of comparison on well-learning and on specially selected poorly learning rats. […] To the poorly learning rats the animals were assigned which reached no "learning criterion" in the teaching series of 50 combinations, or, in other words, a stable knowledge of active avoidance was not worked out in them. […] The preparation according to the present invention and the prior art comparison preparations were administered before the first teaching series or thereafter.
(§3) Also studied were the effects produced upon a single and repeated administration of the preparation according to the present invention for 14 days.

[4] = test system: learning ability of rats preliminarily sorted out for poor learning ability; assay: Active avoidance learning in a shuttle chamber, rats sorted out for poor learning ability; type: in vivo, rat; conditions: poorly learning rats, hypodermally 0.04 mg/kg
From the text: as §1, §2, §3

[5] = hypodermally 30 mg/kg, 12 day (retention)
[6] = hypodermally 100 mg/kg, 1st day
[7] = hypodermally 100 mg/kg, 12 day (retention)
[8] = hypodermally 300 mg/kg, 1st day
[9] = hypodermally 300 mg/kg, 12 day (retention)
[10] = per os 300 mg/kg, 12 day (retention)
[11] = hypodermally 0.03 mg/kg, 1st day
[12] = hypodermally 0.03 mg/kg, 12 day (retention)
[13] = hypodermally 0.1 mg/kg, 1st day
[14] = hypodermally 0.1 mg/kg, 12 day (retention)

Q: What does the source list for `CC(C)(CO)[C@@H](O)C(=O)NCCCC(=O)O` [Calcium homopantothenate, calcium salt of homopantothenic acid]?
A: learning (in words) ([1]; 100 mg/kg): improving effect on learning only in a high dose; effect of hypodermal vs per os administration (in words) ([1]; hypodermal vs per os): substantially more pronounced effect than its per os administration; % of avoidance reactions, group I ([1]; hypodermally 30 mg/kg, 1st day): 21%; % of avoidance reactions, group II ([1]; hypodermally 30 mg/kg, 1st day): 23%; % of avoidance reactions, group III ([1]; hypodermally 30 mg/kg, 1st day): 40%; % of avoidance reactions, group IV ([1]; hypodermally 30 mg/kg, 1st day): 55%; % of avoidance reactions, group V ([1]; hypodermally 30 mg/kg, 1st day): 58%; % of avoidance reactions, group VI ([1]; hypodermally 30 mg/kg, 1st day): 60%; % of avoidance reactions, group I [1, 5]: 55%; % of avoidance reactions, group II [1, 5]: 80%; % of avoidance reactions, group III [1, 5]: 82%; % of avoidance reactions, group IV [1, 5]: 85%; % of avoidance reactions, group V [1, 5]: 84%; % of avoidance reactions, group VI [1, 5]: 88%; % of avoidance reactions, group I [1, 6]: 20%; % of avoidance reactions, group II [1, 6]: 31%; % of avoidance reactions, group III [1, 6]: 40%; % of avoidance reactions, group IV [1, 6]: 55%; % of avoidance reactions, group V [1, 6]: 58%; % of avoidance reactions, group VI [1, 6]: 60%; % of avoidance reactions, group I [1, 7]: 60%; % of avoidance reactions, group II [1, 7]: 90%; % of avoidance reactions, group III [1, 7]: 90%; % of avoidance reactions, group IV [1, 7]: 89%; % of avoidance reactions, group V [1, 7]: 90%; % of avoidance reactions, group VI [1, 7]: 88%; % of avoidance reactions, group I [1, 8]: 21%; % of avoidance reactions, group II [1, 8]: 32%; % of avoidance reactions, group III [1, 8]: 40%; % of avoidance reactions, group IV [1, 8]: 50%; % of avoidance reactions, group V [1, 8]: 51%; % of avoidance reactions, group VI [1, 8]: 55%; % of avoidance reactions, group I [1, 9]: 53%; % of avoidance reactions, group II [1, 9]: 75%; % of avoidance reactions, group III [1, 9]: 76%; % of avoidance reactions, group IV [1, 9]: 76%; % of avoidance reactions, group V [1, 9]: 74%; % of avoidance reactions, group VI [1, 9]: 74%; % of avoidance reactions, group I ([1]; per os 300 mg/kg, 1st day): 21%; % of avoidance reactions, group II ([1]; per os 300 mg/kg, 1st day): 22%; % of avoidance reactions, group III ([1]; per os 300 mg/kg, 1st day): 32%; % of avoidance reactions, group IV ([1]; per os 300 mg/kg, 1st day): 42%; % of avoidance reactions, group V ([1]; per os 300 mg/kg, 1st day): 43%; % of avoidance reactions, group VI ([1]; per os 300 mg/kg, 1st day): 51%; % of avoidance reactions, group I [1, 10]: 50%; % of avoidance reactions, group II [1, 10]: 72%; % of avoidance reactions, group III [1, 10]: 73%; % of avoidance reactions, group IV [1, 10]: 78%; % of avoidance reactions, group V [1, 10]: 77%; % of avoidance reactions, group VI [1, 10]: 80%

Q: Which “Asymmetry factor, Preparation” value ([2]; hypodermally 3 mg/kg, control 0.26 ± 0.03) does the source give for `COc1ccc2c3c1O[C@H]1C[C@@H](O)C=C[C@@]31CCN(C)C2` [Galantamine] here?
A: 0.19 ± 0.03

Q: With `CNC(=O)Oc1ccc2c(c1)[C@]1(C)CCN(C)[C@@H]1N2C` [Physostigmine, physostigmine] as the molecule, how does the “Number of combinations to reach the "learning criterion" in II teaching series (after 7 days)” value [3] read?
A: 6.1 ± 0.9

Q: What about the “Number of combinations to reach the "learning criterion" in the I teaching series” value [3] of the same molecule?
A: 21.9 ± 2.5

Q: And the “Number of non-taught animals in the group” value [3]?
A: 1/20

Q: What about the Percentage knowledge retention [3] of the same molecule?
A: 72%

Q: What about the “asymmetry factor (in words)” value [2] of the same molecule?
A: did not change or reduced the factor of asymmetry

Q: What about the “Asymmetry factor, Preparation” value ([2]; hypodermally 0.04 mg/kg, control 0.22 ± 0.01) of the same molecule?
A: 0.11 ± 0.01

Q: And the “% of knowledge retention” value [4]?
A: 10%

Q: And the “Number of combinations till appearance of "learning criterion", I teaching” value [4]?
A: 46 ± 3.1

Q: What about the “Number of combinations till appearance of "learning criterion", II-checking of retention of knowledge” value [4] of the same molecule?
A: 31.4 ± 1.8

Q: What about the “Number of untaught animals in the group” value [4] of the same molecule?
A: 12/20

Q: And the “teaching of animals (in words)” value ([1]; 0.03 mg/kg)?
A: slightly improves

Q: And the “teaching of animals (in words)” value ([1]; 0.1 mg/kg)?
A: impairs teaching of animals

Q: And the “% of avoidance reactions, group I” value [1, 11]?
A: 20%

Q: What about the “% of avoidance reactions, group II” value [1, 11] of the same molecule?
A: 21%

Q: And the “% of avoidance reactions, group III” value [1, 11]?
A: 26%

Q: And the “% of avoidance reactions, group IV” value [1, 11]?
A: 35%

Q: What about the “% of avoidance reactions, group V” value [1, 11] of the same molecule?
A: 49%

Q: And the “% of avoidance reactions, group VI” value [1, 11]?
A: 57%

Q: What about the “% of avoidance reactions, group I” value [1, 12] of the same molecule?
A: 50%

Q: What about the “% of avoidance reactions, group II” value [1, 12] of the same molecule?
A: 80%

Q: What about the “% of avoidance reactions, group III” value [1, 12] of the same molecule?
A: 83%

Q: What about the “% of avoidance reactions, group IV” value [1, 12] of the same molecule?
A: 87%

Q: What about the “% of avoidance reactions, group V” value [1, 12] of the same molecule?
A: 90%

Q: And the “% of avoidance reactions, group VI” value [1, 12]?
A: 89%

Q: What about the “% of avoidance reactions, group I” value [1, 13] of the same molecule?
A: 18%

Q: What about the “% of avoidance reactions, group II” value [1, 13] of the same molecule?
A: 4%

Q: What about the “% of avoidance reactions, group III” value [1, 13] of the same molecule?
A: 7%

Q: What about the “% of avoidance reactions, group IV” value [1, 13] of the same molecule?
A: 18%

Q: And the “% of avoidance reactions, group V” value [1, 13]?
A: 23%

Q: And the “% of avoidance reactions, group VI” value [1, 13]?
A: 38%

Q: What about the “% of avoidance reactions, group I” value [1, 14] of the same molecule?
A: 39%

Q: What about the “% of avoidance reactions, group II” value [1, 14] of the same molecule?
A: 60%

Q: And the “% of avoidance reactions, group III” value [1, 14]?
A: 70%

Q: What about the “% of avoidance reactions, group IV” value [1, 14] of the same molecule?
A: 70%

Q: And the “% of avoidance reactions, group V” value [1, 14]?
A: 71%

Q: And the “% of avoidance reactions, group VI” value [1, 14]?
A: 70%
